Measured values taken from PMC11203424, “Comparative Analysis of Orthosteric and Allosteric GLP-1R Agonists’ Effects on Insulin Secretion from Healthy, Diabetic, and Recovered INS-1E Pancreatic Beta Cells” (International Journal of Molecular Sciences, 2024).

Legend:
INS-1E cells [1] = assay: GSIS with cAMP-elevating chemicals, insulin ELISA; type: cell-based, Rat; details: IBMX (10 μM), forskolin (0.5 mM), 15 mM glucose, n = 3; for augmentation of GSIS versus allosteric agonists: up to 12 h, p > 0.05
Procedure: Figure 9 Assessing the time-dependent effects of GLP-1R agonists and cAMP-elevating chemicals (IBMX and forskolin) on GSIS and GSICP in healthy, diabetic, and recovered INS-1E cells. […] Samples were analyzed using insulin (a) and cAMP (b) ELISAs. Data expressed as mean ± SEM, n = 3. […] No symbol on the bars indicates non-significance (p > 0.05) in comparison to the no agonist control at that time point. […] The cells were maintained in sterile 10 cm^2 tissue culture Petri dishes (Greiner Bio-one, Stonehouse, UK) by changing the FSM every 3–4 days and sub-culturing when they reached 100% confluency. Diabetic and recovered INS-1E cells were generated using a previously described method with some changes. […] To produce ‘recovered’ cells, the healthy cells were cultured initially in FSM containing 40 mM glucose (diabetic condition) for 4 weeks and then in FSM containing 11 mM glucose for 4 weeks. For all the following assays, INS-1E cells (100,000 cells/well) were plated in a 96-well plate in FSM and incubated for 24 h in a humid incubator at 37 °C and 5% CO2 for the cells to attach and reach >80% confluency. Unless otherwise specified, all incubations of the cells in the following assays were carried out in a humid incubator at 37 °C and 5% CO2, and all of the ELISAs were carried out at room temperature (RT). The insulin secreted by INS-1E cells during the treatments was measured using an insulin ELISA. INS-1E cells (100,000 cells/well) were plated in a 96-well plate in FSM. […] The cells were then incubated in the KRH buffer containing the specified concentration of glucose without or with the specified concentration of GLP-1R agonist(s) for the desired time. After cessation of the cell treatments, the media were clarified via centrifugation at 22,000× g for 5 min and then diluted 1 in 25 in dilution buffer (0.5% fish gelatin made in PBST [PBS with 0.05% tween-20]) and used for the insulin ELISA. The sample preparation for measuring the intracellular insulin contents of the INS-1E cells via the insulin ELISA was as follows. After cessation of the treatments, the cells were lysed in 150 μL of 0.1 M HCl. The cell lysates were centrifuged at 22,000× g for 5 min, then the supernatant was diluted 1 in 1000 in dilution buffer to use as the samples for the insulin ELISA. For the ELISA, the wells of 96-well plate inserts were coated with 50 μL of 3 μg/mL captured antibody (Novus Biologicals, Abingdon, UK) diluted in PBS for 2 h at 37 °C and then washed four times with PBST. […] The reaction was stopped by adding an equal volume of 2M sulfuric acid, then its optical density was read at 450 nm (OD450) using a plate reader. Using known insulin standards (Abcam, Cambridge, UK), the insulin concentrations of samples were determined.

INS-1E cells [2] = assay: Intracellular cAMP (GSICP) with cAMP-elevating chemicals, cAMP ELISA; type: cell-based, Rat; details: IBMX (10 μM), forskolin (0.5 mM), 15 mM glucose, n = 3; for intracellular cAMP (GSICP) versus allosteric agonists: up to 12 h, p > 0.05
Procedure: Figure 9 Assessing the time-dependent effects of GLP-1R agonists and cAMP-elevating chemicals (IBMX and forskolin) on GSIS and GSICP in healthy, diabetic, and recovered INS-1E cells. […] Samples were analyzed using insulin (a) and cAMP (b) ELISAs. Data expressed as mean ± SEM, n = 3. […] No symbol on the bars indicates non-significance (p > 0.05) in comparison to the no agonist control at that time point. […] The cells were maintained in sterile 10 cm^2 tissue culture Petri dishes (Greiner Bio-one, Stonehouse, UK) by changing the FSM every 3–4 days and sub-culturing when they reached 100% confluency. Diabetic and recovered INS-1E cells were generated using a previously described method with some changes. […] To produce ‘recovered’ cells, the healthy cells were cultured initially in FSM containing 40 mM glucose (diabetic condition) for 4 weeks and then in FSM containing 11 mM glucose for 4 weeks. For all the following assays, INS-1E cells (100,000 cells/well) were plated in a 96-well plate in FSM and incubated for 24 h in a humid incubator at 37 °C and 5% CO2 for the cells to attach and reach >80% confluency. Unless otherwise specified, all incubations of the cells in the following assays were carried out in a humid incubator at 37 °C and 5% CO2, and all of the ELISAs were carried out at room temperature (RT). The intracellular cAMP contents of the INS-1E cells during the treatments was measured using a cAMP ELISA. INS-1E cells (100,000 cells/well) were plated in a 96-well plate in FSM. After 24 h, the cells were pre-incubated with KRH buffer containing 0.5% fish gelatin for 1 h, washed twice with KRH and then incubated for 1 h with KRH to reduce basal cAMP levels. The cells were incubated in the KRH buffer containing various concentrations of glucose without or with different concentrations of GLP-1R agonists for the desired time. The cells were then lysed in 150 μL of 0.1M HCl by incubating at RT for 20 min, and then the cell lysates were centrifuged at 16,000× g for 10 min. A total of 12 μL of the supernatant was neutralized with 6 μL of 0.2M NaOH, diluted to 120 μL with TBS containing 0.05% Tween-20 (TBST), and used in the cAMP ELISA. For the ELISA, an anti-rabbit antibody (Genscript, Oxford, UK) diluted to 10 μg/mL in 100 mM NaHCO3 buffer (pH 9.6) was used to coat the wells (50 μL per well) of a 96-well plate overnight at 4 °C. The coated wells were washed twice with TBST and blocked with blocking buffer (TBST containing 0.5% fatty acid-free BSA) for 1 h. Samples of 50 μL were then added individually in duplicate to the antibody-coated wells. […] The reaction was stopped after 5 min with 50 μL of 2M sulfuric acid, then its optical density was read at 450 nm (OD450) using a plate reader. Using known cAMP standards, the cAMP contents of the samples were determined.

[3] = tested on: dipeptidyl peptidase (DPP)-IV; details: cited from earlier work
Text: Type 2 diabetes (T2D), which is a multifactorial metabolic disease that is largely characterized by impaired insulin secretion and action, has become a global pandemic in recent decades. Despite the availability of various treatments, T2D post-diagnosis complications such as cardiovascular disease (CVD) remain prevalent, and finding long-term stable treatment regimes for patients can be challenging. Therefore, novel therapeutic strategies, which alleviate the pathology associated with T2D more effectively than current treatments, are highly desirable. Th ...

GLP-1R [4] = tested on: GLP-1R; set-up: method as in PMID 27630114, doi:10.4172/2161-1459.1000138, PMID 27138453, PMID 27100083, PMID 25449603; details: cited from earlier work
Text: The activation of the Gαs subunit of heterotrimeric G-protein raises intracellular cAMP levels via adenylyl cyclase (AC) activation, whereas the activation of the Gαq subunit increases intracellular calcium (iCa^2+) levels and extracellular signal-regulated kinase (ERK) phosphorylation, which promotes GLP-1R internalization. The internalization of GLP-1R is associate ...

GLP-1R [5] = target: T1, GLP-1R (Rattus norvegicus, UniProt P32301); assay: Glucose-stimulated insulin secretion (GSIS), insulin ELISA, INS-1E cells; type: cell-based; details: 10 μM, 15 mM glucose, n = 3
T1 construct: Rat INS-1E cells were cultured in RPMI-1640 containing 11 mM glucose; endogenous in cells; host or cells: INS-1E rat pancreatic beta cell line (healthy, diabetic and recovered states)
T1 sequence (P32301 22-463): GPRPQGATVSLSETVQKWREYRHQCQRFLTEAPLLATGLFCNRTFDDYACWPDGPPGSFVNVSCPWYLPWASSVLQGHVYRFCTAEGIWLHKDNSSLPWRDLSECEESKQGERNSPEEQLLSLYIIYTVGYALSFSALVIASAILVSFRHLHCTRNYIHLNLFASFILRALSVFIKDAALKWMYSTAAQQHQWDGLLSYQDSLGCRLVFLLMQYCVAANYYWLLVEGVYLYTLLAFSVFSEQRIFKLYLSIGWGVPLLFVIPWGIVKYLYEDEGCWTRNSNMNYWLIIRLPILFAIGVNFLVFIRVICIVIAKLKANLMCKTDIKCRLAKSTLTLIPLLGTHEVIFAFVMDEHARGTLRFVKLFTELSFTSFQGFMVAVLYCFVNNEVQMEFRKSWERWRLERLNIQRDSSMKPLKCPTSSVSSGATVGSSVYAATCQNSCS
Procedure: The cells were maintained in sterile 10 cm^2 tissue culture Petri dishes (Greiner Bio-one, Stonehouse, UK) by changing the FSM every 3–4 days and sub-culturing when they reached 100% confluency. Diabetic and recovered INS-1E cells were generated using a previously described method with some changes [41]. To produce ‘diabetic’ INS-1E cells, when healthy INS-1E cells reached >80% confluency, they were maintained in FSM containing high glucose (40 mM) for 4 weeks by changing the medium with high glucose every 3–4 days. To produce ‘recovered’ cells, the healthy cells were cultured initially in FSM containing 40 mM glucose (diabetic condition) for 4 weeks and then in FSM containing 11 mM glucose for 4 weeks. […] Unless otherwise specified, all incubations of the cells in the following assays were carried out in a humid incubator at 37 °C and 5% CO2, and all of the ELISAs were carried out at room temperature (RT).
For the ELISA, the wells of 96-well plate inserts were coated with 50 μL of 3 μg/mL captured antibody (Novus Biologicals, Abingdon, UK) diluted in PBS for 2 h at 37 °C and then washed four times with PBST. The antibody-coated wells were then blocked for 1 h with 150 μL of blocking buffer (5% fish gelatin made in PBST). Samples of 50 μL of samples were added to the capture antibody-coated wells in duplicate and incubated overnight at 4 °C. The wells were then washed five times with PBST and incubated with 50 μL of HRP-conjugated detection antibody (Abcam; diluted 1/10,000 in dilution buffer) for 2 h. The wells were washed again five times with PBST and incubated with 50 μL of Ultra TMB substrate (Thermo Fisher Scientific, Loughborough, UK) for 5 min. The reaction was stopped by adding an equal volume of 2M sulfuric acid, then its optical density was read at 450 nm (OD450) using a plate reader. Using known insulin standards (Abcam, Cambridge, UK), the insulin concentrations of samples were determined.

GLP-1R [6] = target: T1, GLP-1R; assay: Glucose-stimulated intracellular cAMP production (GSICP), cAMP ELISA, INS-1E cells; type: cell-based; details: diabetic INS-1E; 1 and 2 h, in some instances; 10 μM; n = 3
Procedure: The cells were maintained in sterile 10 cm^2 tissue culture Petri dishes (Greiner Bio-one, Stonehouse, UK) by changing the FSM every 3–4 days and sub-culturing when they reached 100% confluency. Diabetic and recovered INS-1E cells were generated using a previously described method with some changes [41]. To produce ‘diabetic’ INS-1E cells, when healthy INS-1E cells reached >80% confluency, they were maintained in FSM containing high glucose (40 mM) for 4 weeks by changing the medium with high glucose every 3–4 days. To produce ‘recovered’ cells, the healthy cells were cultured initially in FSM containing 40 mM glucose (diabetic condition) for 4 weeks and then in FSM containing 11 mM glucose for 4 weeks. […]
The intracellular cAMP contents of the INS-1E cells during the treatments was measured using a cAMP ELISA. […]
For the ELISA, an anti-rabbit antibody (Genscript, Oxford, UK) diluted to 10 μg/mL in 100 mM NaHCO3 buffer (pH 9.6) was used to coat the wells (50 μL per well) of a 96-well plate overnight at 4 °C. […] The reaction was stopped after 5 min with 50 μL of 2M sulfuric acid, then its optical density was read at 450 nm (OD450) using a plate reader. Using known cAMP standards, the cAMP contents of the samples were determined.

human islets = tested on: human islets; set-up: method as in PMID 20823098; details: human islets isolated from a donor with T2D; cited from earlier work

C=C[C@@]1(C)CC(=O)[C@]2(O)[C@@]3(C)[C@@H](O)CCC(C)(C)[C@@H]3[C@H](O)[C@H](OC(C)=O)[C@@]2(C)O1 [forskolin]
time after which augmentation of GSIS was lost (INS-1E cells [1]): 12 h | augmentation of GSIS versus allosteric agonists (INS-1E cells [1]): augmented GSIS to similar levels | time after which augmentation of GSICP was lost (INS-1E cells [2]): 12 h | intracellular cAMP (GSICP) versus allosteric agonists (INS-1E cells [2]): raised intracellular cAMP levels

CCCCCCCCCCCCCCCC(=O)N[C@@H](CCC(=O)NCCCC[C@H](NC(=O)[C@H](C)NC(=O)[C@H](C)NC(=O)[C@H](CCC(N)=O)NC(=O)CNC(=O)[C@H](CCC(=O)O)NC(=O)[C@H](CC(C)C)NC(=O)[C@H](Cc1ccc(O)cc1)NC(=O)[C@H](CO)NC(=O)[C@H](CO)NC(=O)[C@@H](NC(=O)[C@H](CC(=O)O)NC(=O)[C@H](CO)NC(=O)[C@@H](NC(=O)[C@H](Cc1ccccc1)NC(=O)[C@@H](NC(=O)CNC(=O)[C@H](CCC(=O)O)NC(=O)[C@H](C)NC(=O)[C@@H](N)Cc1cnc[nH]1)[C@@H](C)O)[C@@H](C)O)C(C)C)C(=O)N[C@@H](CCC(=O)O)C(=O)N[C@@H](Cc1ccccc1)C(=O)N[C@H](C(=O)N[C@@H](C)C(=O)N[C@@H](Cc1c[nH]c2ccccc12)C(=O)N[C@@H](CC(C)C)C(=O)N[C@H](C(=O)N[C@@H](CCCNC(=N)N)C(=O)NCC(=O)N[C@@H](CCCNC(=N)N)C(=O)NCC(=O)O)C(C)C)[C@@H](C)CC)C(=O)O [Liraglutide]
resistance to DPP-IV [3]: resistant to breakdown by DPP-IV

GLP-1: hormone secreted into the circulation by intestinal L-cells in response to food intake
half-life [3]: short half-life | G-protein pathway activation via GLP-1R (GLP-1R [4]): activation of both the Gαs and Gαq pathways

CC(C)Cn1c(=O)n(C)c(=O)c2[nH]cnc21 [IBMX, Isobutylmethylxanthine]
time after which augmentation of GSIS was lost (INS-1E cells [1]): 12 h | augmentation of GSIS versus allosteric agonists (INS-1E cells [1]): augmented GSIS to similar levels | time after which augmentation of GSICP was lost (INS-1E cells [2]): 12 h | intracellular cAMP (GSICP) versus allosteric agonists (INS-1E cells [2]): raised intracellular cAMP levels

CC[S+]([O-])c1nc(-c2cccc(OCc3ccccc3)c2)cc(C(F)(F)F)n1 (centres unmarked) [Compound B, 4-(3-(benzyloxy)phenyl)-2-(ethylsulfinyl)-6-(trifluoromethyl)-pyramidine]
GSIS at 48 h, 72 h and 96 h (GLP-1R [5]; diabetic INS-1E): significantly boosted GSIS | GSIS at 48 h, 72 h and 96 h (GLP-1R [5]; healthy and recovered INS-1E): slightly increased GSIS | GSICP, 8 mM glucose preincubation (GLP-1R [6]): boosted GSCIP to a greater extent | insulin secretion (human islets): near-normal levels

CC(C)(C)Nc1nc2cc(Cl)c(Cl)cc2nc1S(C)(=O)=O [Compound 2, 6,7-dichloro-2-methylsulfonyl-3-N-tert-butylaminoquinoxaline]
GSIS at 48 h, 72 h and 96 h (GLP-1R [5]; diabetic INS-1E): significantly boosted GSIS | GSIS at 48 h, 72 h and 96 h (GLP-1R [5]; healthy and recovered INS-1E): slightly increased GSIS
